Results from patent US20130196989A1, “COMPOSITIONS AND METHODS FOR INDUCING CELL DEDIFFERENTIATION” (The Scripps Research Institute, priority 2003, published 2013).

Columns and labels:
C2C12 myoblast cells [1] = tested on: C2C12 myoblast cells
Procedure: Mammalian cells (e.g., C2C12 myoblast cells) were treated with a suitable amount of a test compound (e.g., 5 μM reversine) in DMEM supplemented with 10% FBS for four days. The compound was then removed and medium was changed to adipogenic differentiation medium (ADM) containing 0.5 mM 3-isobutyl-1-methylxanthine, 2.5 μg/ml insulin, and 0.5 μM dexamethasone. Typically, the ADM is replaced every two days. After seven days following induction of adipogenesis, the cells are washed with PBS (200 μL, 3 times) and fixed with 10% formalin solution (Sigma) for 10 min. The fixed cells are then washed with PBS (200 μL, 3 times) and stained with the 0.7% Oil Red O (Sigma) as directed by the manufacturer. Images are taken on a Nikon Eclipse TE2000 microscope at 200 fold magnification.
(§1) After four days of treatment with reversine, the compound was removed and cells were then grown in osteogenic differentiation medium (ODM) or adipogenic differentiation medium (ADM).

C2C12 myoblasts cells = test: Cell death at effective concentration
Procedure: as §1

C2C12 cells = settings: single-cell colonies, 6 days of treatment, portions cultured in ODM and ADM
Procedure: Clonal analysis is used to verify that reversine can induce dedifferentiation at the single cell level. C2C12 cells were cultured from a single cell and treated with reversine. After 6 days of treatment, each colony was divided into two portions. One portion was cultured in ODM and another portion was cultured in ADM. The cells were then analyzed using the staining assays described in Example 1.

C2C12 myoblast cells [2] = settings: 5 μM compound for four days, then seven days in osteogenic inducing medium; BBTP substrate
Procedure: C2C12 cells (ATCC CRL-1772) are cultured in DMEM (Gibco) supplemented with 10% fetal bovine serum (HyClone) at 37° C. in 5% CO2.
For the small molecule screen, proliferating C2C12 cells are plated into black 384-well tissue culture plates (Greiner) at a density of 1,000 cells/well in DMEM with 10% FBS. […] After the cells are treated with test compounds for four days, the test compound is removed and the cell culture medium is changed to osteogenic differentiation medium (ODM) containing 50 μg/ml ascorbic acid 2-phosphate, 0.1 μM dexamethasone and 10 mM β-glycerophosphate. Cell culture medium is typically changed every two days. After seven additional days of culture in ODM, the ODM is removed and cells are lysed by incubation in 10 μL passive lysis buffer (Promega) for 10 min, followed by addition of 10 μL alkaline phosphatase substrate solution (AttoPhos, Promega). After a 15 minute room temperature incubation, fluorescence intensity is read on an Acquest (Molecular Devices) as directed by the manufacturer. […]

C2C12 myoblast cells [3] = tested on: C2C12 myoblast cells; remark: listed apart in the source
Procedure: Mammalian cells (e.g., C2C12 myoblast cells) are treated with a suitable amount of a test compound (e.g., 5 μM reversine) in DMEM supplemented with 10% FBS for four days. The compound is then removed and medium is changed to ODM every two days. After seven days following induction of osteogenesis, the cells are washed with PBS (200 μL, 3 times) and fixed with 10% formalin solution (Sigma) for 20 min. The fixed cells are then washed with PBS (200 μL, 3 times) and stained with the Alkaline Phosphatase Staining Kit 86R (Sigma) as directed by the manufacturer. Images are taken on a Nikon Eclipse TE2000 microscope at 200 fold magnification.
as §1

C2C12 myoblast cells [4] = settings: 5 μM reversine, day four of compound treatment

## c1nc2nc(Nc3ccc(N4CCOCC4)cc3)nc(NC3CCCCC3)c2[nH]1 [Compound A, 2-(4-Morpholinoanilino)-6-cyclohexylamino-purine]
C2C12 myoblast cells [1]; four days of treatment, compound removed, ADM condition, end of day seven
  cells with fat cell morphology, stained positive with Oil Red O: 40%
C2C12 myoblast cells [1]; in the absence of ADM
  adipogenesis activity of compound alone: no adipogenesis activity
C2C12 myoblasts cells
  cell death: no significant cell death
C2C12 myoblasts cells; C2C12 dedifferentiation
  effective concentration: 0.5 to 5 µM
C2C12 cells
  colonies determined to be multipotent: 56 of 97
C2C12 myoblast cells [2]
  level of ALP activity relative to the DMSO control treatment: 7 fold
C2C12 myoblast cells [3]; four days of treatment, compound removed, ODM conditions, end of day seven
  cells stained positive for ALP: 35%
C2C12 myoblast cells [3]; in the absence of ODM
  osteogenesis activity of compound alone: no osteogenesis activity
C2C12 myoblast cells [4]
  myogenic specific markers such as MyoD and myosin: began to disappear
  myotube formation: completely inhibited
